Reference: article PMC8453635, “Piperidine Azasugars Bearing Lipophilic Chains: Stereoselective Synthesis and Biological Activity as Inhibitors of Glucocerebrosidase (GCase)” (The Journal of Organic Chemistry, 2021)

Tested on: human fibroblasts wild type
Test: MTT cytotoxicity test
Assay type: cell-based
Settings: prolonged incubation at 100 and 50 μM
Protocol: The MTT test was carried out using the human fibroblasts wild type at different concentrations of compound 33·HCl. Fibroblasts were grown in the presence of Dulbecco’s modified Eagle’s medium supplemented with 10% fetal bovine serum (FBS), 1% glutamine, and 1% penicillin–streptomycin, at 37 °C in controlled atmosphere with 5% CO2. For the experiments, cells were seeded at a density of 20,000 cells per well in 24-well plates and grown for 24 h (or 48 h) before adding the compound. The compound was dissolved in water; then, aliquots of these were diluted in the growth medium. To preserve sterility of solutions, these were filtered with 0.22 μm filters before adding to the dishes containing fibroblasts. Then, cells were incubated at 37 °C in 5% CO2 for 24 h (or 48 h). After this time, the media were replaced with medium containing 0.5 mg/mL of 3-(4,5-dimethylthiazol-2-yl)-2,5-diphenyltetrazolium bromide (MTT); the cells were incubated for an additional 1 h at 37 °C in 5% CO2. Finally, the number of viable cells was quantified by the estimation of their dehydrogenase activity, which reduces MTT to water-insoluble formazan. […] The quantitation was carried out measuring the absorbance of samples at 570 nm with the iMark microplate absorbance reader (BIO RAD) in a 96-well format. […]
33.HCl at different concentrations. After this time, the viability of cells was evaluated using MMT assay. […]

CCCCCCCC[C@@H]1[C@@H](O)[C@H](O)[C@H](O)CN1C(CCCCCCC)CCCCCCC.Cl [compound 33·HCl, (2R,3R,4R,5R)-2-Octyl-1-(pentadecan-8-yl)-piperidine-3,4,5-triol Hydrochloride]
cytotoxicity (MTT test): remarkable cytotoxicity
